From publication PMC9696794, “Synthesis and Antimicrobial Activity of Short Analogues of the Marine Antimicrobial Peptide Turgencin A: Effects of SAR Optimizations, Cys-Cys Cyclization and Lipopeptide Modifications” (International Journal of Molecular Sciences, 2022)
Where a SMILES comes first, the peptide text is derived from it. The star is where a group is joined. Lauroyl = CCCCCCCCCCCC(=O)*; Decanoyl = CCCCCCCCCC(=O)*; Octanoyl = CCCCCCCC(=O)*

Experiments:
[1] = system: B. subtilis (Bs, ATCC 23857); assay: microbe, parasite or virus in culture; assay type: cell-based, Bacillus subtilis; details: ATCC 23857, 24 h
Protocol: (§1) All cyclic and linear peptides were screened for antibacterial activity against four Gram-positive strains: B. subtilis (Bs, ATCC 23857), C. glutamicum (Cg, ATCC 13032), S. aureus (Sa, ATCC 9144) and S. epidermidis RP62A (Se, ATCC 35984), and two Gram-negative strains: E. coli (Ec, ATCC 25922) and P. aeruginosa (Pa, ATCC 27853). The activity was assessed using a broth microdilution assay according to a modified CLSI-based method. Briefly, overnight bacterial cultures were grown in Mueller–Hinton (MH) broth medium (Difco Laboratories, Detroit, MI, USA) for 2 h at room temperature. The optical density (OD600) was measured, and the bacterial suspensions were adjusted to 2.5–3 × 10^4 CFU/mL in MH medium. The bacterial suspension (50 µL) was distributed in 96-well plates (Nunc, Roskilde, Denmark) preloaded with two-fold dilution series (256 to 1 µg/mL) of peptide solutions (50 µL), giving a final well volume of 100 µL. The microplates were incubated in an EnVision 2103 microplate reader (PerkinElmer, Llantrisant, UK) at 35 °C, with OD595 recorded every hour for 24 h. MIC was defined as the lowest concentration of peptides showing an optical density less than 10% of the negative (growth) control, consisting of bacterial suspension and water. Polymyxin B sulfate (Sigma-Aldrich, St. Louis, MO, USA) and chlorhexidine acetate (CHX, Fresenius Kabi, Halden, Norway), both with concentrations ranging from 12.5 to 0.09 μg/mL, served as positive (growth inhibition) controls. All peptides were tested in triplicate.

[2] = system: C. glutamicum (Cg, ATCC 13032); assay: microbe, parasite or virus in culture; assay type: cell-based, Corynebacterium glutamicum; details: ATCC 13032, 24 h
Protocol: as §1

[3] = system: S. aureus (Sa, ATCC 9144); assay: microbe, parasite or virus in culture; assay type: cell-based, Staphylococcus aureus; details: ATCC 9144, 24 h
Protocol: as §1

[4] = system: S. epidermidis RP62A (Se, ATCC 35984); assay: microbe, parasite or virus in culture; assay type: cell-based, Staphylococcus epidermidis; details: ATCC 35984, 24 h
Protocol: as §1

E. coli (Ec, ATCC 25922) = assay: microbe, parasite or virus in culture; assay type: cell-based, Escherichia coli; details: ATCC 25922, 24 h
Protocol: as §1

[5] = system: P. aeruginosa (Pa, ATCC 27853); assay: microbe, parasite or virus in culture; assay type: cell-based, Pseudomonas aeruginosa; details: ATCC 27853, 24 h
Protocol: as §1

all bacterial strains = assay: Antibacterial MIC assay, all bacterial strains together (range or geometric mean); assay type: cell-based; details: for GM (geometric mean of the MIC values against all bacterial strains): Table 1, six bacterial strains; for GM of MIC Tot. bact.: Table S3, all bacterial test strains, MIC >256 set to 256
Protocol: The selectivity index (SI) of the peptides towards bacteria over eukaryotic cells was calculated using the geometric mean (GM) of the MIC values against all bacterial test strains, according to the method by Orlov et al.. The SI for each peptide was determined as the ratio of the RBC-EC50 value by the corresponding GM value. Larger SI values indicate greater selectivity for microbial cells. […] In general, the SI was higher against the Gram-positive bacteral strains than the Gram-negative strains. (Table S3). Overall, peptides displaying EC50 < 100 µg/mL were considered too haemolytic to be of interest for further exploration.
as §1

A. pullulans (Ap) = assay: microbe, parasite or virus in culture; assay type: cell-based, Aurobasidium pollulans; details: 48 h
Protocol: (§2) The synthesized peptides were screened for antifungal activity against the molds A. pullulans (Ap) and Rhodotorula sp. (Rh) (both obtained from Professor Arne Tronsmo, The Norwegian University of Life Sciences, Ås, Norway) and the yeast C. albicans (Ca, ATCC 10231) as previously described. In short, fungal spores were grown in potato dextrose broth media (Difco) containing 2% D(+)-glucose (Merck, Darmstadt, Germany) at 25–30 °C while shaking at 200 rpm overnight. The cultures were diluted with a dextrose media containing glucose to a concentration of approx. 4 × 10^5 spores/mL. Aliquots of the cultures (50 µL) were transferred to 96 well microtiter plates preloaded with the synthetic peptides (50 µL) in two-fold serial dilutions (256 to 1 µg/mL). Polymyxin B and CHX (both with concentrations ranging from 12.5 to 0.09 μg/mL) served as positive antibiotic controls. The microtiter plates containing the fungal spores and the test peptides were incubated at room temperature for 48 h and OD600 was recorded using a Synergy H1 Hybrid microplate reader system (BioTek, Winooski, VT, USA). MIC was defined as the lowest peptide concentration showing an optical density less than 10% of the negative (growth) control. All experiments were performed in triplicate.

[6] = system: C. albicans (Ca, ATCC 10231); assay: microbe, parasite or virus in culture; assay type: cell-based, Candida albicans; details: ATCC 10231, 48 h
Protocol: as §2

Rhodotorula sp. (Rh) = assay: microbe, parasite or virus in culture; assay type: cell-based; details: 48 h
Protocol: as §2

[7] = system: human red blood cells (RBC); assay: Haemolytic activity assay; assay type: cell-based; details: for Selectivity index (SI) G- / Selectivity index (SI) G+ / Selectivity index (SI) Fungi: Table S3, highest tested concentration used where EC50 above it; for Selectivity index (SI) G-: EC50/GM of Gram-negative strains; for Selectivity index (SI) G+: EC50/GM of Gram-positive strains; for Selectivity index (SI) Fungi: EC50/GM of fungi; for SI (selectivity index = EC50/GM): haemolytic EC50 over GM of MIC against all bacterial strains, Table 1; for RBC Tox. (EC50), haemolytic activity: human RBC, 1 h, 37 °C, concentration giving 50% haemolysis
Protocol: The synthetized lipopeptides were screened for haemolytic activity against human red blood cells (RBC), in concentrations ranging from 500 to 3.9 μM, following a previously described protocol. In brief, haemolysis was determined using a heparinizied (10 IU/mL) fraction of freshly drawn human blood. A second fraction of blood, which was collected in test tubes containing ethylenediaminetetraacetic acid (EDTA, Vacutest, KIMA, Arzergrande, Italy), was used for determination of the hematocrit (hct). Plasma was removed from heparinized blood by washing three times with prewarmed phosphate-buffered saline (PBS) before being adjusted to a hematocrit of 4%. Peptides dissolved in dimethyl sulfoxide (DMSO) were further diluted with PBS to a final DMSO content of ≤1%. Triton X-100 (Sigma-Aldrich, St. Louis, MO, USA), used at a final concentration of 0.1%, served as a positive control for 100% haemolysis, whereas 1% DMSO in PBS buffer served as a negative control where no toxicity was detected. Duplicates of test solutions and erythrocytes, with 1% hct final concentration, were prepared in a 96-well polypropylene V-bottom plate (Nunc, Fischer scientific, Oslo, Norway). They were incubated under agitation at 37 °C and 800 rpm for 1 h. After centrifugation (5 min, 3000× g), 100 µL from each well were transferred to a flat-bottomed 96-well plate and absorbance was measured at 545 nm with a microplate reader (SpectraMax 190, Molecular Devices, San Jose, CA, USA). After subtracting PBS background, the percentage of haemolysis was calculated as the ratio of the absorbance in the peptide-treated and surfactant-treated samples. Three independent experiments were performed, and EC50 (the concentration giving 50% haemolysis) values are presented as averages.

[8] = system: Gram-positive bacterial strains; details: for GM of MIC G+: Table S3, MIC >256 set to 256; for MIC against the Gram-positive bacterial strains: 2 h
Protocol: as §1

[9] = system: Gram-negative bacterial strains (E. coli and P. aeruginosa); assay: Antibacterial MIC assay, Gram-negative strains together (range or geometric mean); assay type: cell-based; details: Table S3; MIC >256 set to 256
Protocol: as §1

[10] = system: fungi (A. pullulans, C. albicans, Rhodotorula sp.); assay: Antifungal MIC assay, all fungi together (range or geometric mean); assay type: cell-based; details: Table S3; MIC >128 set to 128
Protocol: as §2

| SMILES | Antimicrobial Activity (MIC) Gram + Bs [1] | Antimicrobial Activity (MIC) Gram + Cg [2] | Antimicrobial Activity (MIC) Gram + Sa [3] | Antimicrobial Activity (MIC) Gram + Se [4] | Antimicrobial Activity (MIC) Gram − Ec (E. coli (Ec, ATCC 25922)) | Antimicrobial Activity (MIC) Gram − Pa [5] | GM (geometric mean of the MIC values against all bacterial strains) (all bacterial strains) | GM of MIC Tot. bact. (all bacterial strains) | Antimicrobial Activity (MIC) Fungi Ap (A. pullulans (Ap)) | Antimicrobial Activity (MIC) Fungi Ca [6] | Antimicrobial Activity (MIC) Fungi Rh (Rhodotorula sp. (Rh)) | Selectivity index (SI) G- [7] | Selectivity index (SI) G+ [7] | Selectivity index (SI) Fungi [7] | SI (selectivity index = EC50/GM) [7] | GM of MIC G+ [8] | GM of MIC G- [9] | GM of MIC Fungi [10] | RBC Tox. (EC50), haemolytic activity [7] | MIC against the Gram-positive bacterial strains [8] |
| --- | --- | --- | --- | --- | --- | --- | --- | --- | --- | --- | --- | --- | --- | --- | --- | --- | --- | --- | --- | --- |
| CCCCCCCCCCCC(=O)N[C@@H](CS)C(=O)NCC(=O)N[C@@H](CCCCN)C(=O)N[C@@H](CCCCN)C(=O)N[C@@H](Cc1c[nH]c2ccccc12)C(=O)N[C@@H](Cc1c[nH]c2ccccc12)C(=O)NCC(=O)N[C@@H](Cc1c[nH]c2ccccc12)C(=O)N[C@@H](CCCCN)C(=O)N[C@@H](CS)C(=O)N[C@@H](CCCCN)C(=O)N[C@@H](CC(C)C)C(N)=O [Peptide C12-Turg-2, C12- CGKKWWGWKC KL-NH2] (Lauroyl-CGKKWWGWKCKL-NH2) | 8 µg/mL | 16 µg/mL | 16 µg/mL | 8 µg/mL | 16 µg/mL | 32 µg/mL | 14 µg/mL | 14 µg/mL | 32 µg/mL | 64 µg/mL | 32 µg/mL | 2 | 5 | 1 | 4 | 11 µg/mL | 23 µg/mL | 40 µg/mL | – | – |
| CCCCCCCCCC(=O)N[C@@H](CS)C(=O)NCC(=O)N[C@@H](CCCCN)C(=O)N[C@@H](CCCCN)C(=O)N1CCC[C@H]1C(=O)NCC(=O)NCC(=O)N[C@@H](Cc1c[nH]c2ccccc12)C(=O)N[C@@H](CCCCN)C(=O)N[C@@H](CS)C(=O)N[C@@H](CCCCN)C(=O)N[C@@H](CC(C)C)C(N)=O [Peptide C10-Turg-1, C10- CGKKPGGWKC KL-NH2] (Decanoyl-CGKKPGGWKCKL-NH2) | 4 µg/mL | 4 µg/mL | 16 µg/mL | 8 µg/mL | 16 µg/mL | 32 µg/mL | 10 µg/mL | 10 µg/mL | 32 µg/mL | 64 µg/mL | 8 µg/mL | > 42 | > 142 | > 38 | >95 | 7 µg/mL | 23 µg/mL | 25 µg/mL | >957 µg/mL | – |
| CCCCCCCC(=O)N[C@@H](CS)C(=O)NCC(=O)N[C@@H](CCCCN)C(=O)N[C@@H](CCCCN)C(=O)N[C@@H](Cc1c[nH]c2ccccc12)C(=O)N[C@@H](Cc1c[nH]c2ccccc12)C(=O)NCC(=O)N[C@@H](Cc1c[nH]c2ccccc12)C(=O)N[C@@H](CCCCN)C(=O)N[C@@H](CS)C(=O)N[C@@H](CCCCN)C(=O)N[C@@H](CC(C)C)C(N)=O [Peptide C8-Turg-2, C8- CGKKWWGWKC KL-NH2] (Octanoyl-CGKKWWGWKCKL-NH2) | 8 µg/mL | 4 µg/mL | 8 µg/mL | 8 µg/mL | 16 µg/mL | 16 µg/mL | 9 µg/mL | 9 µg/mL | 32 µg/mL | 64 µg/mL | 32 µg/mL | 12 | 29 | 5 | 22 | 7 µg/mL | 16 µg/mL | 40 µg/mL | 198 µg/mL | 4 to 8 µg/mL |
| CCCCCCCCCC(=O)N[C@@H](CS)C(=O)NCC(=O)N[C@@H](CCCCN)C(=O)N[C@@H](CCCCN)C(=O)N[C@@H](Cc1c[nH]c2ccccc12)C(=O)N[C@@H](Cc1c[nH]c2ccccc12)C(=O)NCC(=O)N[C@@H](Cc1c[nH]c2ccccc12)C(=O)N[C@@H](CCCCN)C(=O)N[C@@H](CS)C(=O)N[C@@H](CCCCN)C(=O)N[C@@H](CC(C)C)C(N)=O [Peptide C10-Turg-2, C10- CGKKWWGWKC KL-NH2] (Decanoyl-CGKKWWGWKCKL-NH2) | 8 µg/mL | 4 µg/mL | 8 µg/mL | 8 µg/mL | 8 µg/mL | 16 µg/mL | 8 µg/mL | 8 µg/mL | 32 µg/mL | 64 µg/mL | 32 µg/mL | 6 | 10 | 2 | 8 | 7 µg/mL | 11 µg/mL | 40 µg/mL | – | 4 to 8 µg/mL |
